Assay results published in ChEMBL document CHEMBL1150480, “Photoreactive CMP-sialic acids as substrates for 2,6-sialyltransferase” (Bioorg Med Chem Lett, 1995).
One block for each molecule: values may come before it.

Columns and labels:
[1] = target: T1, Beta-galactoside alpha-2,6-sialyltransferase 1 (Rattus norvegicus) (UniProt P13721); experiment: Evaluation of kinetic constant for rat liver GaI-beta-1,4GIcNAc alpha2,6-sialyltransferase in presence of compound
T1 sequence (whole entry): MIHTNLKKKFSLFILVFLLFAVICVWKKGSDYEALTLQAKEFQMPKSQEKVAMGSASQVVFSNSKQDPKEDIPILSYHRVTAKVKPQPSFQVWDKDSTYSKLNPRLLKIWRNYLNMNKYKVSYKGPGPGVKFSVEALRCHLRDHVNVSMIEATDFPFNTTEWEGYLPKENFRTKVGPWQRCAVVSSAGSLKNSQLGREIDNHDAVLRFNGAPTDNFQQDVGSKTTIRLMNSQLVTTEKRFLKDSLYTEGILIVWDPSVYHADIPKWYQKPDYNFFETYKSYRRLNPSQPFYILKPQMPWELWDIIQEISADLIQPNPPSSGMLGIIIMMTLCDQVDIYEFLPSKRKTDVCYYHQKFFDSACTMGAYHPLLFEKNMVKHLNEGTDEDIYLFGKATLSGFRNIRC

[2] = Evaluation of ratio of Michaelis-Menten constant to that of kinetic constant against 2,6-sialyltransferase in presence of compound
[3] = compound: CC(=O)NC1C(O)CC(OP(=O)(O)OC[C@H]2OC(n3ccc(N)nc3=O)[C@H](O)[C@@H]2O)(C(=O)O)OC1[C@H](O)[C@H](O)CNC(=O)c1ccc(N=[N+]=[N-])cc1; experiment: (§1) Evaluation of Michaelis-Menten constant of rat liver GaI-beta-1,4GIcNAc alpha2,6-sialyltransferase in presence of compound
[4] = compound: NCC(=O)NC1C(O)CC(OP(=O)(O)OC[C@H]2OC(n3ccc(N)nc3=O)[C@H](O)[C@@H]2O)(C(=O)O)OC1[C@H](O)C(O)CO; experiment: as §1
[5] = compound: [N-]=[N+]=Nc1ccc(C(=O)NCC(=O)NC2C(O)CC(OP(=O)(O)OC[C@H]3OC(n4ccc(N)nc4=O)[C@H](O)[C@@H]3O)(C(=O)O)OC2[C@H](O)[C@H](O)CO)cc1; experiment: as §1
[6] = compound: CC(=O)NC1C(O)CC(OP(=O)(O)OC[C@H]2OC(n3ccc(N)nc3=O)[C@H](O)[C@@H]2O)(C(=O)O)OC1[C@H](O)[C@H](O)CNC(=O)c1ccc(N=[N+]=[N-])cc1O; experiment: as §1
[7] = compound: CC(=O)NC1C(O)CC(OP(=O)(O)OC[C@H]2OC(n3ccc(N)nc3=O)[C@H](O)[C@@H]2O)(C(=O)O)OC1[C@H](O)[C@H](O)CNC(=O)c1ccc(C(=O)c2ccccc2)cc1; experiment: as §1

Relative Vmax [1]: 0.9 | Ratio [2]: 13.6
Molecule: CC(=O)NC1C(O)CC(OP(=O)(O)OC[C@H]2OC(n3ccc(N)nc3=O)[C@H](O)[C@@H]2O)(C(=O)O)OC1[C@H](O)[C@H](O)CNC(=O)c1ccc(N=[N+]=[N-])cc1 (stereo not given in full)

Relative Vmax [1]: 0.8 | Ratio [2]: 11.8
Molecule: CC(=O)NC1C(O)CC(OP(=O)(O)OC[C@H]2OC(n3ccc(N)nc3=O)[C@H](O)[C@@H]2O)(C(=O)O)OC1[C@H](O)[C@H](O)CNC(=O)c1ccc(C(=O)c2ccccc2)cc1 (stereo not given in full)

Continued, molecule first:

Molecule: [N-]=[N+]=Nc1ccc(C(=O)NCC(=O)NC2C(O)CC(OP(=O)(O)OC[C@H]3OC(n4ccc(N)nc4=O)[C@H](O)[C@@H]3O)(C(=O)O)OC2[C@H](O)[C@H](O)CO)cc1 (stereo not given in full)
Relative Vmax [1]: 0.5 | Ratio [2]: 3.1

Molecule: CC(=O)NC1C(O)CC(OP(=O)(O)OC[C@H]2OC(n3ccc(N)nc3=O)[C@H](O)[C@@H]2O)(C(=O)O)OC1[C@H](O)[C@H](O)CNC(=O)c1ccc(N=[N+]=[N-])cc1O (stereo not given in full)
Relative Vmax [1]: 1.1 | Ratio [2]: 13.8

Molecule: NCC(=O)NC1C(O)CC(OP(=O)(O)OC[C@H]2OC(n3ccc(N)nc3=O)[C@H](O)[C@@H]2O)(C(=O)O)OC1[C@H](O)C(O)CO (stereo not given in full)
Relative Vmax [1]: 1 | Ratio [2]: 22.2

B1: Beta-galactoside alpha-2,6-sialyltransferase 1 (Rattus norvegicus), P13721 (protein)
chain: T1 sequence (whole entry)
Km [3]: 66 µM | Km [4]: 45 µM | Km [5]: 161 µM | Km [6]: 80 µM | Km [7]: 68 µM
